Six compounds from patent US20240217964A1, “QUINUCLIDINONE ANALOGUES AS ANTICANCER AGENTS” (Newave Pharmaceutical Inc., priority 2021, published 2024) can be followed below.

The subject of data set [1] is RS4;11-G101V cell line. As to the kind of experiment: In vitro anti-proliferation assay (ATPlite) in RS4;11 with G101V mutation. Format: cell-based. The settings on record: about 72 hours incubation. How it is done: (§1) Cell antiproliferation was assayed by PerkinElmer ATPlite™ Luminescence Assay System. Briefly, the various test cancer cell lines were plated at a density of about 1×10^4 cells per well in Costar 96-well plates, and were incubated with different concentrations of compounds for about 72 hours in medium supplemented with 5% FBS or 10% normal human serum(NHS). One lyophilized substrate solution vial was then reconstituted by adding 5 mL of substrate buffer solution, and was agitated gently until the solution was homogeneous. About 50 μL of mammalian cell lysis solution was added to 100 μL of cell suspension per well of a microplate, and the plate was shaken for about five minutes in an orbital shaker at ˜700 rpm. This procedure was used to lyse the cells and to stabilize the ATP. Next, 50 μL substrate solution was added to the wells and microplate was shaken for five minutes in an orbital shaker at ˜700 rpm. Finally, the luminescence was measured by a PerkinElmer TopCount® Microplate Scintillation Counter. Such assays, carried out with a range of doses of test compounds, allowed the determination of the cellular anti-antiproliferative IC50 of the compounds of the present invention. The following table lists the IC50 values of certain compounds of the invention.
The following table lists the IC50 values of the in vitro anti-proliferation assay in RS4;11-G101V cell line.
(In general: Cellular ATP, detected with luciferase, serves as a proxy for viable cell number.)

For data set [2], the system named is CEM(R248Q). As to the kind of experiment: In vitro anti-proliferation assay (ATPlite) in p53 mutant cell line CEM(R248Q). It is filed as cell-based. The settings on record: Mutation R175H, about 72 hours incubation. As for the experimental part: as §1
(§2) The following table lists the IC50 values of another in vitro anti-proliferation assay in different p53 mutant cell lines.

Data set [3] concerns KASUMI-1. As to the kind of experiment: In vitro anti-proliferation assay (ATPlite) in p53 mutant cell line KASUMI-1. It is filed as cell-based. The settings on record: Cell line KASUMI-1, Mutation R248Q, about 72 hours incubation. As for the experimental part:
as §1, §2

Data set [4] has as its system SUP-T1. As to the kind of experiment: In vitro anti-proliferation assay (ATPlite) in p53 mutant cell line SUP-T1. The settings on record: Cell line SUP-T1, Mutation R273H, about 72 hours incubation. It is filed as cell-based. How it is done:
as §1, §2

Data set [5] concerns DB. As to the kind of experiment: In vitro anti-proliferation assay (ATPlite) in p53 mutant cell line DB. It is filed as cell-based. The settings on record: Mutation R248Q, about 72 hours incubation. How it is done: as §1, §2
Data set [6] in a line: Mice PK study. Format: in vivo. The note with it: CD-1 mouse. How it is done: The pharmacokinetics of compounds were evaluated in CD-1 mouse via Intravenous and Oral Administration. The IV dose was administered as a slow bolus in the Jugular vein, and oral doses were administered by gavage. The formulation for IV dosing was 5% DMSO in 20% HPBCD in water, and the PO formulation was 2.5% DMSO, 10% EtOH, 20% Cremphor EL, 67.5% D5W. The PK time point for the IV arm was 5, 15, 30 min, 1, 2, 4, 6, 8, 12, 24 hours post dose, and for PO arm was 15, 30 min, 1, 2, 4, 6, 8, 12, 24 hours post dose. Approximately 0.03 mL blood was collected at each time point. Blood of each sample was transferred into plastic micro centrifuge tubes containing EDTA-K2 and collect plasma within 15 min by centrifugation at 4000 g for 5 minutes in a 4° C. centrifuge. Plasma samples were stored in polypropylene tubes. The samples were stored in a freezer at −75±15° C. prior to analysis. Concentrations of compounds in the plasma samples were analyzed using a LC-MS/MS method. WinNonlin (Phoenix™, version 6.1) or other similar software was used for pharmacokinetic calculations. The following pharmacokinetic parameters were calculated, whenever possible from the plasma concentration versus time data: IV administration: Co, CL, Vd, T1/2, AUCinf, AUClast, MRT, Number of Points for Regression; PO administration: Cmax, Tmax, T1/2, AUCinf, AUClast, F %, Number of Points for Regression. The pharmacokinetic data was described using descriptive statistics such as mean, standard deviation.

As a reminder, the IC50 is the concentration at which inhibition is half-maximal. A lower IC50 goes with greater potency in that assay. As for `COC[C@]1(CO)C(=O)[C@H]2CC[N@]1[C@H](C)C2` [Example 17, (1R,2R,4S,6R)-2-(hydroxymethyl)-2-(methoxymethyl)-6-methylquinuclidin-3-one], the half-maximal inhibitory concentration (IC50) is 730 nM in data set [1]; 560 nM in data set [2]; 1000 nM in data set [3]; 2100 nM in data set [4]; 3700 nM in data set [5]. In addition, the Bioavailabilty in data set [6] (Oral, 100 mpk) turned out to be 79%. In data set [6] (Oral, 100 mpk, plasma), the AUClas was 26,093 h*ng/ml. In data set [6] (oral), the “bioavailability (in words)” value is “excellent bioavailable”.
Take `COCC1(CO)C(=O)C2CCN1CC2` (centres unmarked) [APR-246, reference compound]: in data set [1], the IC50 came out at 1760 nM.
For the compound `COC[C@]1(CO)C(=O)[C@@H]2CC[N@@]1[C@@H](C)C2` [Example 27, (1S,2R,4R,6S)-2-(hydroxymethyl)-2-(methoxymethyl)-6-methylquinuclidin-3-one], the IC50 in data set [2] came to 1600 nM; in data set [3] it was 2600 nM; in data set [4] it was 3300 nM; in data set [5], 3300 nM.
Turning to `COC[C@@]1(CO)C(=O)[C@H]2CC[N@]1[C@H](C)C2` [Example 28, (1R,2S,4S,6R)-2-(hydroxymethyl)-2-(methoxymethyl)-6-methylquinuclidin-3-one], the IC50 in data set [2] is 4500 nM; in data set [3], 7500 nM; in data set [4], 12600 nM; in data set [5], 18400 nM.
Take `COC[C@@]1(CO)C(=O)[C@@H]2CC[N@@]1[C@@H](C)C2` [Example 18, (1S,2S,4R,6S)-2-(hydroxymethyl)-2-(methoxymethyl)-6-methylquinuclidin-3-one]: the IC50 in data set [1] was 1800 nM; in data set [2], 690 nM; in data set [3], 2000 nM; in data set [4], 2600 nM; in data set [5], 2900 nM.
For `COC[C@@]1(CO)C(=O)C2CCN1CC2` [ARP-246-S, (S)-2-(hydroxymethyl)-2-(methoxymethyl)quinuclidin-3-one, reference compound], the IC50 turned out to be 495 nM in data set [2], 1000 nM in data set [3] (Homo sapiens), 4800 nM in data set [4] (Homo sapiens) and 3000 nM in data set [5] (Homo sapiens).
